Assay results reported in patent US20080009418A1, “Selective Inhibitors” (Alchemia LTD., priority 2004, published 2008).

Legend:
Human opioid (ORL1) = target: T1, Human opioid (ORL1) (Homo sapiens, UniProt P41146); experiment: Radioligand binding, human opioid ORL1 membranes, FlashPlate, [125I]-Nociceptin; conditions: compound at 10 μM; for A10 radioligand binding inhibition: human ORL1 membranes
T1 construct: purchased Perkin Elmer Biosignal
Method in brief: (§1)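 Cloned human receptor membranes were coated onto FlashPlate wells and incubated with radioligand and compound (added from a 0.5 mM DMSO daughter plate) for 1 hour at room temperature in the dark. Scintillation counting gave percent inhibition, with DMSO defining total and reference ligand defining non-specific binding.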

Human κ-Opioid (KOP) = target: T2, Human κ-Opioid (KOP) (Homo sapiens, UniProt P41145); experiment: Radioligand binding, human κ-opioid (KOP) membranes, filtration, [3H]-Diprenorphine; conditions: compound at 10 μM; for A2 radioligand binding inhibition: human κ-opioid (KOP) membranes
T2 construct: purchased Perkin Elmer Biosignal
T2 sequence (P41145 whole entry): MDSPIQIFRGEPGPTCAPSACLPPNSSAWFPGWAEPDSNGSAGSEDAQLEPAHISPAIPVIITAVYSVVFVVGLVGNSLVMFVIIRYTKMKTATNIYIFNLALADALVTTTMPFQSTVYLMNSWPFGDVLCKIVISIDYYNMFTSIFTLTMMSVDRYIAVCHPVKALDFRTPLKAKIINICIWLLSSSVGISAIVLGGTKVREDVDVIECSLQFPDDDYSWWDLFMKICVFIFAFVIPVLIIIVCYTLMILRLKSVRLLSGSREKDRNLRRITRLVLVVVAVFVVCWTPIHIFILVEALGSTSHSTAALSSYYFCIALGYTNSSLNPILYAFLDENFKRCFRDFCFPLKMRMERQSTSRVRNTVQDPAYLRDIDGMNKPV
Method in brief: (§2)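 Membranes from cloned human receptors were incubated with compound and radioligand for 1 hour at room temperature. Bound ligand was collected on 0.3% PEI-soaked filters, washed with cold 50 mM Tris-HCl pH 7.4, and counted by scintillation. Percent inhibition was computed against DMSO totals and reference-ligand nonspecific wells.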

Human melanocortin (MC5) = target: T3, Human melanocortin (MC5) (Homo sapiens, UniProt P33032); experiment: Radioligand binding, human melanocortin MC5 membranes, FlashPlate, [125I]-NDP-αMSH; conditions: compound at 10 μM; for A5 radioligand binding inhibition: human melanocortin MC5 membranes
T3 construct: purchased Perkin Elmer Biosignal
T3 sequence (P33032 whole entry): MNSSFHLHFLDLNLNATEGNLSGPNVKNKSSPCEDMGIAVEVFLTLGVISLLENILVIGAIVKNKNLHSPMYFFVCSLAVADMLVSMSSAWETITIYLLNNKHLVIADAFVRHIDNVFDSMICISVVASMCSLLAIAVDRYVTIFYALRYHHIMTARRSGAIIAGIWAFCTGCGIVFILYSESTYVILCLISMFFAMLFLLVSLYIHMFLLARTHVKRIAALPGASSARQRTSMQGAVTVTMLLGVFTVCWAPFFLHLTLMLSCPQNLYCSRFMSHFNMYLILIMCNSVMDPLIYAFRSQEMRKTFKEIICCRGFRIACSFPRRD
Method in brief: as §1

Mouse urotensin (mUR2) = target: T4, Mouse urotensin (mUR2) (Mus musculus, UniProt Q8VIH9); experiment: Radioligand binding, mouse urotensin mUR2 membranes, FlashPlate, [125I]-Urotensin II; conditions: compound at 10 μM; for A11 radioligand binding inhibition: mouse urotensin mUR2 membranes
T4 construct: purchased Perkin Elmer Biosignal
T4 sequence (Q8VIH9 1-385): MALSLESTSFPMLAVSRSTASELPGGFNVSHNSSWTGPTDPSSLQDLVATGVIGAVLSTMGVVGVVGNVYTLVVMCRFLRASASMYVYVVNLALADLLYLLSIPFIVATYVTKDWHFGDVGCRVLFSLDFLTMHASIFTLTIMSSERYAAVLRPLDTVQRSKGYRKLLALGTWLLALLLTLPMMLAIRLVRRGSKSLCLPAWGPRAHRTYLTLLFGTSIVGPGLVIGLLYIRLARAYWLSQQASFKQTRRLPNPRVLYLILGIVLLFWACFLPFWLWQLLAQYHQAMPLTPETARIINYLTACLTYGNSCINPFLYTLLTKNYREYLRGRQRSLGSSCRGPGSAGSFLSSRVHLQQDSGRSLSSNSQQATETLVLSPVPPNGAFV
Method in brief: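 Cloned mouse urotensin (mUR2) receptor membranes from Perkin Elmer Biosignal were immobilized in FlashPlate microplates using a proprietary coating. Each well got 19.5 μl buffer, then 0.5 μl of DMSO, reference ligand, or compound. Adding 5 μl of [125I]-Urotensin II, diluted to 5× final concentration in binding buffer, started binding. Plates were sealed with TopSeal-A and incubated 1 hour at room temperature in the dark. Wells were counted for 30 seconds each on a TopCount after a 60-second delay, and percentage inhibition was calculated.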

[1] = target: T5, Human melanin-concentrating hormone (MCH1) (Homo sapiens, UniProt Q99705); experiment: Radioligand binding, human melanin-concentrating hormone MCH1 membranes, FlashPlate, [125I]-S36057; conditions: compound at 10 μM; for A6 radioligand binding inhibition: human MCH1 membranes
T5 construct: purchased Perkin Elmer Biosignal
T5 sequence (Q99705 whole entry): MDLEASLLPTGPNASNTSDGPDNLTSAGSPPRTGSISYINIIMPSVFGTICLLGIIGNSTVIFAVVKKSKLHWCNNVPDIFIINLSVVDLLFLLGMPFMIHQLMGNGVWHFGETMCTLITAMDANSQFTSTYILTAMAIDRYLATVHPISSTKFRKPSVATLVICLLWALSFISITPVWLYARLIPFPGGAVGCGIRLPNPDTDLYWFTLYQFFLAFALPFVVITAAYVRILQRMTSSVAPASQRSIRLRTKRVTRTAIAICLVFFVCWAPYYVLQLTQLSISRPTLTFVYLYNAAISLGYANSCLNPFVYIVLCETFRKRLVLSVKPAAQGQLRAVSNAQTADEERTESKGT
Method in brief: as §1

[2] = target: T6, Human neuropeptide Y (NPY-Y1) (Homo sapiens, UniProt P25929); experiment: Radioligand binding, human neuropeptide Y NPY-Y1 membranes, FlashPlate, [125I]-PYY; conditions: compound at 10 μM; for A9 radioligand binding inhibition: human NPY-Y1 membranes
T6 construct: purchased Perkin Elmer Biosignal
T6 sequence (P25929 1-384): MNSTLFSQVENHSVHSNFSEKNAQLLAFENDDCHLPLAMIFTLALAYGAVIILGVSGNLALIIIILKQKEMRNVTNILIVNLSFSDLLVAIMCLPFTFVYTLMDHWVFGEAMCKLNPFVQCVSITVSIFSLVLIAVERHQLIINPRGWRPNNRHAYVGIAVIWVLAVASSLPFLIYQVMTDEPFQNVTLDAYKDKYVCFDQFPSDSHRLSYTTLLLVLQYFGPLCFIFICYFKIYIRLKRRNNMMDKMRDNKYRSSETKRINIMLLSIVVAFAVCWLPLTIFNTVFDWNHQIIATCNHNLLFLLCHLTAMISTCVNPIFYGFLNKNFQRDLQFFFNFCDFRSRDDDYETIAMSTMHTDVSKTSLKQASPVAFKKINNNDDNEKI
Method in brief: as §1

Human Melanocortin (MC3) = target: T7, Human Melanocortin (MC3) (Homo sapiens, UniProt P41968); experiment: Radioligand binding, human melanocortin MC3 membranes, FlashPlate, [125I]-NDP-αMSH; conditions: compound at 10 μM; for A3 radioligand binding inhibition: human melanocortin MC3 membranes
T7 construct: purchased Perkin Elmer Biosignal
T7 sequence (P41968 whole entry): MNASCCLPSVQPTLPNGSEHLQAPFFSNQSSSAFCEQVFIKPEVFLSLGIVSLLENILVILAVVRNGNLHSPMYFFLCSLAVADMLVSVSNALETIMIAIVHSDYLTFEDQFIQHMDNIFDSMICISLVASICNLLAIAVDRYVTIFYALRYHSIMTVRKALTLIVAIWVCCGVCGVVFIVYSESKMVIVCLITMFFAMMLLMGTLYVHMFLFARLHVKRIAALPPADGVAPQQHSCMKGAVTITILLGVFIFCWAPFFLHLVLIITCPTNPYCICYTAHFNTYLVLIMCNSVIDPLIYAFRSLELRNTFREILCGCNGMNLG
Method in brief: as §1

Human μ-opioid (MOP) = target: T8, Human μ-opioid (MOP) (Homo sapiens, UniProt P35372); experiment: Radioligand binding, human μ-opioid (MOP) membranes, FlashPlate, [3H]-Naloxone; conditions: compound at 10 μM; for A7 radioligand binding inhibition: human μ-opioid (MOP) membranes
T8 construct: purchased Perkin Elmer Biosignal
T8 sequence (P35372 whole entry): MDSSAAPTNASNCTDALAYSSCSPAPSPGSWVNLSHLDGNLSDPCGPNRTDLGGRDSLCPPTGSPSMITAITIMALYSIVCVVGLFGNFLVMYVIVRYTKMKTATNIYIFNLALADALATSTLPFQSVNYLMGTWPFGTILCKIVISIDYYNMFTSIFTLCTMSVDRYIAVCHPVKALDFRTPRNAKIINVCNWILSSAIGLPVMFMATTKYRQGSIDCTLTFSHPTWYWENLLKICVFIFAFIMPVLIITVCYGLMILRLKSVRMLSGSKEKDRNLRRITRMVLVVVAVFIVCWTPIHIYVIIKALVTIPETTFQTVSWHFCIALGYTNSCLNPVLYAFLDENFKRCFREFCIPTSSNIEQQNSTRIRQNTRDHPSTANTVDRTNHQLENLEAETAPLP
Method in brief: as §1

Human Melanocortin (MC4) = target: T9, Human Melanocortin (MC4) (Homo sapiens, UniProt P32245); experiment: Radioligand binding, human melanocortin MC4 membranes, FlashPlate, [125I]-NDP-αMSH; conditions: compound at 10 μM; for A4 radioligand binding inhibition: human melanocortin MC4 membranes
T9 construct: purchased Perkin Elmer Biosignal
T9 sequence (P32245 whole entry): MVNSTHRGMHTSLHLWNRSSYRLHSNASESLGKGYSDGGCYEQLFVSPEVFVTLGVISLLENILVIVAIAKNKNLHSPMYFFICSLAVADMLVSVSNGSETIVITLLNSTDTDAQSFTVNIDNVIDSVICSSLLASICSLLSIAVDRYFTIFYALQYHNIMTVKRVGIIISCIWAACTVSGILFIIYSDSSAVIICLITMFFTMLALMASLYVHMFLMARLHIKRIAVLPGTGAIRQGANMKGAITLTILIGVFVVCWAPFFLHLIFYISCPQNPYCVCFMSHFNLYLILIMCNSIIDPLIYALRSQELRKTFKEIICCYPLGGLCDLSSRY
Method in brief: as §1

Human neurokinin (NK1) = target: T10, Human neurokinin (NK1) (Homo sapiens, UniProt P25103); experiment: Radioligand binding, human neurokinin NK1 membranes, filtration, [125I]-Substance P; conditions: compound at 10 μM; for A8 radioligand binding inhibition: human neurokinin NK1 membranes
T10 construct: purchased Perkin Elmer Biosignal
T10 sequence (P25103 whole entry): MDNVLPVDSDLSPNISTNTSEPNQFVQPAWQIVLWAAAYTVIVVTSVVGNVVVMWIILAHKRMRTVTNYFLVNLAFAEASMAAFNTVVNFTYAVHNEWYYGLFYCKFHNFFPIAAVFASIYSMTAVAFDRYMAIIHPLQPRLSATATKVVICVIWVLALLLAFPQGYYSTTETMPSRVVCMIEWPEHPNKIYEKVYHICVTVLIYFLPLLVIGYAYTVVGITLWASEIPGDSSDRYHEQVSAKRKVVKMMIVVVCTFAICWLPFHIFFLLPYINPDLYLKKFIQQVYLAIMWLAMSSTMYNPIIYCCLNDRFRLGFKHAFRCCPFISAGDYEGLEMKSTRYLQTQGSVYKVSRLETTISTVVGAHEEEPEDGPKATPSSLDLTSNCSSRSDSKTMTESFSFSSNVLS
Method in brief: as §2

Human δ-opioid (DOP) = target: T11, Human δ-opioid (DOP) (Homo sapiens, UniProt P41143); experiment: Radioligand binding, human δ-opioid (DOP) membranes, FlashPlate, [3H]-Bremazocine; conditions: compound at 10 μM; for A1 radioligand binding inhibition: human δ-opioid (DOP) membranes
T11 construct: purchased Perkin Elmer Biosignal
T11 sequence (P41143 whole entry): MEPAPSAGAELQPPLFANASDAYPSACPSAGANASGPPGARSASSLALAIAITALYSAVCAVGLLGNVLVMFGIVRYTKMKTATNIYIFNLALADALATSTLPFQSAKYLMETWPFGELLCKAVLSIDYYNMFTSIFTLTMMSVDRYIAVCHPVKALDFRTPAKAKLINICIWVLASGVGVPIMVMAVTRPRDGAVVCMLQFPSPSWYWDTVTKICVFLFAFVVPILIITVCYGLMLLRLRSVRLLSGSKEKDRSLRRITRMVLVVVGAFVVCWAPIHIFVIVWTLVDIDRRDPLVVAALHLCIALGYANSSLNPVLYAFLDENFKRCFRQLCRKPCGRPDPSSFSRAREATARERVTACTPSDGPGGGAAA
Method in brief: as §1

T1 sequence (P41146 whole entry): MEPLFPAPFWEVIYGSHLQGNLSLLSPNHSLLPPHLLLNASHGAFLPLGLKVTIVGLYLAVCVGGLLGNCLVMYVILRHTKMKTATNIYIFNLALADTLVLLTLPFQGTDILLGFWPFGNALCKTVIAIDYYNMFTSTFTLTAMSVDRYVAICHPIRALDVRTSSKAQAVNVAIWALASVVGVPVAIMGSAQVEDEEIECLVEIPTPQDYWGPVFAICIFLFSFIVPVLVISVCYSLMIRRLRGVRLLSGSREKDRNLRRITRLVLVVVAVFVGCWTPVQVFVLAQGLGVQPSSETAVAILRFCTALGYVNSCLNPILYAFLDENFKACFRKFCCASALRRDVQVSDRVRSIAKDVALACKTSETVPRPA

CO[C@H]1[C@H](O)[C@@H](COCc2ccccc2)OC(OCc2ccc3ccccc3c2)[C@@H]1NC(=O)CCCNC(=N)N (stereo partly shown) [compound 77]
A10 radioligand binding inhibition (Human opioid (ORL1)): − (“−” indicates less than 50% inhibition at 10 μM)
A2 radioligand binding inhibition (Human κ-Opioid (KOP)): − (“−” indicates less than 50% inhibition at 10 μM)
A5 radioligand binding inhibition (Human melanocortin (MC5)): + (“+” indicates greater than 50% inhibition at 10 μM)
A11 radioligand binding inhibition (Mouse urotensin (mUR2)): − (“−” indicates less than 50% inhibition at 10 μM)
A6 radioligand binding inhibition [1]: − (“−” indicates less than 50% inhibition at 10 μM)
A9 radioligand binding inhibition [2]: − (“−” indicates less than 50% inhibition at 10 μM)
A3 radioligand binding inhibition (Human Melanocortin (MC3)): − (“−” indicates less than 50% inhibition at 10 μM)
A7 radioligand binding inhibition (Human μ-opioid (MOP)): + (“+” indicates greater than 50% inhibition at 10 μM)
A4 radioligand binding inhibition (Human Melanocortin (MC4)): − (“−” indicates less than 50% inhibition at 10 μM)
A8 radioligand binding inhibition (Human neurokinin (NK1)): + (“+” indicates greater than 50% inhibition at 10 μM)
A1 radioligand binding inhibition (Human δ-opioid (DOP)): − (“−” indicates less than 50% inhibition at 10 μM)

NCCC(=O)NC1C(OCc2ccc(Cl)cc2)OC(COCc2ccc(Cl)cc2)C(O)C1OCc1ccc2ccccc2c1 (single isomer, unassigned) [compound 481]
A10: inhibition of radioligand binding, human opioid (ORL1) (Human opioid (ORL1); [125I]-Nociceptin): + (“+” indicates greater than 50% inhibition at 10 μM)
A2: inhibition of radioligand binding, human κ-opioid (KOP) (Human κ-Opioid (KOP); [3H]-Diprenorphine, 10 µM): + (“+” indicates greater than 50% inhibition at 10 μM)
A5: inhibition of radioligand binding, human melanocortin (MC5) (Human melanocortin (MC5); [125I]-NDP-αMSH): + (“+” indicates greater than 50% inhibition at 10 μM)
A11: inhibition of radioligand binding, mouse urotensin (mUR2) (Mouse urotensin (mUR2); [125I]-Urotensin II): − (“−” indicates less than 50% inhibition at 10 μM)
A6: inhibition of radioligand binding, human melanin-concentrating hormone (MCH1) ([1]; [125I]-S36057): + (“+” indicates greater than 50% inhibition at 10 μM)
A9: inhibition of radioligand binding, human neuropeptide Y (NPY-Y1) ([2]; [125I]-PYY): − (“−” indicates less than 50% inhibition at 10 μM)
A3: inhibition of radioligand binding, human melanocortin (MC3) (Human Melanocortin (MC3); [125I]-NDP-αMSH): + (“+” indicates greater than 50% inhibition at 10 μM)
A7: inhibition of radioligand binding, human μ-opioid (MOP) (Human μ-opioid (MOP); [3H]-Naloxone): − (“−” indicates less than 50% inhibition at 10 μM)
A4: inhibition of radioligand binding, human melanocortin (MC4) (Human Melanocortin (MC4); [125I]-NDP-αMSH): + (“+” indicates greater than 50% inhibition at 10 μM)
A8: inhibition of radioligand binding, human neurokinin (NK1) (Human neurokinin (NK1); [125I]-Substance P): + (“+” indicates greater than 50% inhibition at 10 μM)
A1: inhibition of radioligand binding, human δ-opioid (DOP) (Human δ-opioid (DOP); [3H]-Bremazocine): − (“−” indicates less than 50% inhibition at 10 μM)

COCC1OC(OCc2ccccc2)C(NC(=O)CNC(=N)N)C(OCc2ccc(-c3ccccc3)cc2)C1O (stereo not shown) [compound 183]
A10 radioligand binding, percentage inhibition (Human opioid (ORL1); [125I]-Nociceptin): − (“−” indicates less than 50% inhibition at 10 μM)
A2 radioligand binding, percentage inhibition (Human κ-Opioid (KOP); [3H]-Diprenorphine): − (“−” indicates less than 50% inhibition at 10 μM)
A5 radioligand binding, percentage inhibition (Human melanocortin (MC5); [125I]-NDP-αMSH): + (“+” indicates greater than 50% inhibition at 10 μM)
A11 radioligand binding, percentage inhibition (Mouse urotensin (mUR2); [125I]-Urotensin II): − (“−” indicates less than 50% inhibition at 10 μM)
A6 radioligand binding, percentage inhibition ([1]; [125I]-S36057): + (“+” indicates greater than 50% inhibition at 10 μM)
A9 radioligand binding, percentage inhibition ([2]; [125I]-PYY): − (“−” indicates less than 50% inhibition at 10 μM)
A3 radioligand binding, percentage inhibition (Human Melanocortin (MC3); [125I]-NDP-αMSH): − (“−” indicates less than 50% inhibition at 10 μM)
A7 radioligand binding, percentage inhibition (Human μ-opioid (MOP); [3H]-Naloxone): − (“−” indicates less than 50% inhibition at 10 μM)
A4 radioligand binding, percentage inhibition (Human Melanocortin (MC4); [125I]-NDP-αMSH): + (“+” indicates greater than 50% inhibition at 10 μM)
A8 radioligand binding, percentage inhibition (Human neurokinin (NK1); [125I]-Substance P): + (“+” indicates greater than 50% inhibition at 10 μM)
A1 radioligand binding, percentage inhibition (Human δ-opioid (DOP); [3H]-Bremazocine): − (“−” indicates less than 50% inhibition at 10 μM)

COCC1OC(OCc2ccc(Cl)cc2)C(NC(=O)CCN)C(OCc2ccc3ccccc3c2)C1O (stereo not shown) [compound 210]
A10: inhibition of radioligand binding (Human opioid (ORL1); [125I]-Nociceptin, FlashPlate): − (“−” indicates less than 50% inhibition at 10 μM)
A2: inhibition of radioligand binding (Human κ-Opioid (KOP); [3H]-Diprenorphine, filtration): − (“−” indicates less than 50% inhibition at 10 μM)
A5: inhibition of radioligand binding (Human melanocortin (MC5); [125I]-NDP-αMSH, FlashPlate): + (“+” indicates greater than 50% inhibition at 10 μM)
A11: inhibition of radioligand binding (Mouse urotensin (mUR2); [125I]-Urotensin II, FlashPlate): − (“−” indicates less than 50% inhibition at 10 μM)
A6: inhibition of radioligand binding ([1]; [125I]-S36057, FlashPlate): − (“−” indicates less than 50% inhibition at 10 μM)
A9: inhibition of radioligand binding ([2]; [125I]-PYY, FlashPlate): − (“−” indicates less than 50% inhibition at 10 μM)
A3: inhibition of radioligand binding (Human Melanocortin (MC3); [125I]-NDP-αMSH, FlashPlate): − (“−” indicates less than 50% inhibition at 10 μM)
A7: inhibition of radioligand binding (Human μ-opioid (MOP); [3H]-Naloxone, FlashPlate): − (“−” indicates less than 50% inhibition at 10 μM)
A4: inhibition of radioligand binding (Human Melanocortin (MC4); [125I]-NDP-αMSH, FlashPlate): + (“+” indicates greater than 50% inhibition at 10 μM)
A8: inhibition of radioligand binding (Human neurokinin (NK1); [125I]-Substance P, filtration): + (“+” indicates greater than 50% inhibition at 10 μM)
A1: inhibition of radioligand binding (Human δ-opioid (DOP); [3H]-Bremazocine, FlashPlate): − (“−” indicates less than 50% inhibition at 10 μM)

COC[C@H]1OC(OCCc2ccccc2)[C@H](NC(=O)CCCNC(=N)N)[C@@H](OCc2ccc(Cl)cc2)[C@@H]1O (stereo partly shown) [compound 50]
A10 radioligand binding inhibition (Human opioid (ORL1)): − (“−” indicates less than 50% inhibition at 10 μM)
A2 radioligand binding inhibition (Human κ-Opioid (KOP)): − (“−” indicates less than 50% inhibition at 10 μM)
A5 radioligand binding inhibition (Human melanocortin (MC5)): − (“−” indicates less than 50% inhibition at 10 μM)
A11 radioligand binding inhibition (Mouse urotensin (mUR2)): − (“−” indicates less than 50% inhibition at 10 μM)
A6 radioligand binding inhibition [1]: + (“+” indicates greater than 50% inhibition at 10 μM)
A9 radioligand binding inhibition [2]: − (“−” indicates less than 50% inhibition at 10 μM)
A3 radioligand binding inhibition (Human Melanocortin (MC3)): − (“−” indicates less than 50% inhibition at 10 μM)
A7 radioligand binding inhibition (Human μ-opioid (MOP)): − (“−” indicates less than 50% inhibition at 10 μM)
A4 radioligand binding inhibition (Human Melanocortin (MC4)): − (“−” indicates less than 50% inhibition at 10 μM)
A8 radioligand binding inhibition (Human neurokinin (NK1)): + (“+” indicates greater than 50% inhibition at 10 μM)
A1 radioligand binding inhibition (Human δ-opioid (DOP)): − (“−” indicates less than 50% inhibition at 10 μM)
